Experimental data from US7994140B2, “Classes of compounds that interact with GPCRs” (Alchemia Limited, priority 2002, dated 2011).

Columns and labels:
MC4 = biological target: T1, MC4 (Homo sapiens, UniProt P32245); experiment: GPCR radioligand binding (RLB) assay, melanocortin MC4, [125I]NDP-αMSH; conditions: 10 micromolar; Example Library 4
T1 construct: purchased Perkin Elmer BioSignal; host or cells: HEK 293
In short: (§1)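 Membranes from HEK 293 cells expressing the recombinant human receptor were equilibrated with [125I]SST-14 (SST5) or [125I]NDP-αMSH (MC4), then compound added for an optimized incubation. Bound ligand separated by filtration on PEI-coated glass fiber and counted by liquid scintillation.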

SST5 = biological target: T2, SST5 (Homo sapiens, UniProt P35346); experiment: GPCR radioligand binding (RLB) assay, somatostatin SST5, [125I]SST-14; conditions: 10 micromolar; Example Library 4
T2 construct: purchased Perkin Elmer BioSignal; host or cells: HEK 293
In short: as §1

T2 sequence (P35346 whole entry): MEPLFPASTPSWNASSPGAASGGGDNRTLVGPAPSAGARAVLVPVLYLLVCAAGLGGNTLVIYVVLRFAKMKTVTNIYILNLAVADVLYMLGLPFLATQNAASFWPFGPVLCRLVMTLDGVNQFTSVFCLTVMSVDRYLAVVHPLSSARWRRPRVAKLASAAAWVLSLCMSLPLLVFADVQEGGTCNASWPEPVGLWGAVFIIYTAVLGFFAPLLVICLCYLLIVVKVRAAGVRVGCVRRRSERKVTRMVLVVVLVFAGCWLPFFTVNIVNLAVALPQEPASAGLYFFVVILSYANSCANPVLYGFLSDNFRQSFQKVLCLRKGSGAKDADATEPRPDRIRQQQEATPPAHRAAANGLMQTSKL
T1 sequence (P32245 whole entry): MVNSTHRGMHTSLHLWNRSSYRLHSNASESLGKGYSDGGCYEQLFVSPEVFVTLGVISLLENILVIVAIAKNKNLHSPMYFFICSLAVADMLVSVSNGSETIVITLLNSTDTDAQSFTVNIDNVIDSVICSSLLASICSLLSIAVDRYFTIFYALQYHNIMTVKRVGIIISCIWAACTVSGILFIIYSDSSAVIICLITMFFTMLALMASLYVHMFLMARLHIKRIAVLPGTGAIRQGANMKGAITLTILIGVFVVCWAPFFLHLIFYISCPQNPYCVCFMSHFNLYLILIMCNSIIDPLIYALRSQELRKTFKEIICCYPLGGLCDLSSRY

Row | Compound | MC4 inhibition at 10 micromolar (MC4) | SSTS inhibition at 10 micromolar (SST5)
1 | COCC1OC(OCCc2ccccc2)C(NC(=O)CNC(=N)N)C(OCc2ccc(-c3ccccc3)cc2)C1O (stereo not drawn) [Compound 273] | + (Indicates inhibition greater than . . . 50%) | + (Indicates inhibition greater than . . . 50%)
2 | COCC1OC(OCCc2ccccc2)C(NC(=O)CN)C(OCc2ccc(-c3ccccc3)cc2)C1O (stereo not drawn) [Compound 274] | + (Indicates inhibition greater than . . . 50%) | + (Indicates inhibition greater than . . . 50%)
3 | COCC1OC(OCCc2ccccc2)C(NC(=O)CCNC(=N)N)C(OCc2ccc(-c3ccccc3)cc2)C1O (stereo not drawn) [Compound 275] | + (Indicates inhibition greater than . . . 50%) | + (Indicates inhibition greater than . . . 50%)
4 | COCC1OC(OCCc2ccccc2)C(NC(=O)CCCN)C(OCc2ccc(-c3ccccc3)cc2)C1O (stereo not drawn) [Compound 276] | + (Indicates inhibition greater than . . . 50%) | + (Indicates inhibition greater than . . . 50%)
5 | COCC1OC(OCCc2ccccc2)C(NC(=O)CCCNC(=N)N)C(OCc2ccc(-c3ccccc3)cc2)C1O (stereo not drawn) [Compound 277] | + (Indicates inhibition greater than . . . 50%) | + (Indicates inhibition greater than . . . 50%)
6 | COCC1OC(OCCc2ccccc2)C(NC(=O)CN)C(OCc2ccc3ccccc3c2)C1O (stereo not drawn) [Compound 278] | + (Indicates inhibition greater than . . . 50%) | + (Indicates inhibition greater than . . . 50%)
7 | COCC1OC(OCCc2ccccc2)C(NC(=O)CNC(=N)N)C(OCc2ccc3ccccc3c2)C1O (stereo not drawn) [Compound 279] | + (Indicates inhibition greater than . . . 50%) | + (Indicates inhibition greater than . . . 50%)
8 | COCC1OC(OCCc2ccccc2)C(NC(=O)CN)C(OCc2ccc3ccccc3c2)C1O (stereo not drawn) [Compound 280] | + (Indicates inhibition greater than . . . 50%) | + (Indicates inhibition greater than . . . 50%)
9 | COCC1OC(OCCc2ccccc2)C(NC(=O)CCNC(=N)N)C(OCc2ccc3ccccc3c2)C1O (stereo not drawn) [Compound 281] | + (Indicates inhibition greater than . . . 50%) | + (Indicates inhibition greater than . . . 50%)
10 | COCC1OC(OCCc2ccccc2)C(NC(=O)CCCN)C(OCc2ccc3ccccc3c2)C1O (stereo not drawn) [Compound 282] | + (Indicates inhibition greater than . . . 50%) | + (Indicates inhibition greater than . . . 50%)
11 | COCC1OC(OCCc2ccccc2)C(NC(=O)CCCNC(=N)N)C(OCc2ccc3ccccc3c2)C1O (stereo not drawn) [Compound 283] | + (Indicates inhibition greater than . . . 50%) | + (Indicates inhibition greater than . . . 50%)
12 | COCC1OC(OCc2ccc3ccccc3c2)C(NC(=O)CNC(=N)N)C(OCc2ccccc2)C1O (stereo not drawn) [Compound 285] | + (Indicates inhibition greater than . . . 50%) | + (Indicates inhibition greater than . . . 50%)
13 | COCC1OC(OCc2ccc3ccccc3c2)C(NC(=O)CN)C(OCc2ccccc2)C1O (stereo not drawn) [Compound 286] | + (Indicates inhibition greater than . . . 50%) | + (Indicates inhibition greater than . . . 50%)
14 | COCC1OC(OCc2ccc3ccccc3c2)C(NC(=O)CCNC(=N)N)C(OCc2ccccc2)C1O (stereo not drawn) [Compound 287] | + (Indicates inhibition greater than . . . 50%) | + (Indicates inhibition greater than . . . 50%)
15 | COCC1OC(OCc2ccc3ccccc3c2)C(NC(=O)CNC(=N)N)C(OCc2ccc(Cl)cc2)C1O (stereo not drawn) [Compound 291] | + (Indicates inhibition greater than . . . 50%) | + (Indicates inhibition greater than . . . 50%)
